# Assay results taken from patent US12553889B2, “Small molecules targeting the intrinsically disordered structural ensemble of α-synuclein protect against diverse α-synuclein mediated dysfunctions” (The Regents of the University of California, priority 2019, dated 2026).
# “Also recorded” adds a separate entry of the source.
# Legend:
# [1] = system: BACE, GST and CAII control proteins; assay: Biacore 4000 SPR binding specificity (pb-index, control proteins); settings: 100 μM
# Protocol: The binding specificity of 576755 and its analogues was assessed by testing their ability to bind to αSyn versus a set of control proteins: Beta-Site Amyloid Precursor Protein Cleaving Enzyme 1 (BACE), Glutathione-S transferase (GST) and Carbonic Anhydrase (CAII). The binding data was merged into a pb-index, as discussed in more detail below. Compounds were tested at 100 μM using the Biacore 4000 instrument as described below. […] The percent RMax (% Rmax) for αSyn and the average % Rmax for the control proteins (pb-index) were calculated described below. […] The remaining 576755-analogues show no reaction with the control proteins and thus have improved specificity of binding.
# Preparation of off-target protein sensor chips. […]
# Surface Plasmon Resonance Measurements. […] Time-dependent binding curves were monitored simultaneously. […] The time-dependent binding curves were monitored simultaneously. […]
# SPR Data Evaluation. The obtained data were quality controlled and evaluated using the manufacturers Evaluation Software as described previously (Regnström, K. et al. (2013)). Data were exported into Microsoft Excel and further analyzed as follows: The binding levels of running buffer injections were used to calculate the background noise level (>three-fold σ). All binding level data was calculated by subtracting the background noise level and adjustment to molecular weight (% Rmax). […]
# [2] = system: primary rat embryonic midbrain neurons; assay: Toxicity to primary midbrain dopaminergic neurons; assay type: cell-based; settings: compound alone, 60 μM
# Protocol: Primary midbrain cultures were prepared and dopaminergic neuronal viability in the presence and absence of αSyn was assessed as previously described and repeated herein. Primary midbrain cultures were prepared from embryonic day 17 embryos of Sprague-Dawley rats using methods reviewed and approved by the Purdue Animal Care and Use Committee as described previously. After dissection, the cells were plated into a poly-L-lysine-treated 48-well plate at a density of 163,500 cells per well. Four days later, the cells were treated with cytosine arabinofuranoside (AraC) (20 μM) for 48 hours to inhibit the growth of glial cells. The cultures were used for measurements of dopaminergic neuron viability at 7 days in vitro. […] In order to determine the viability of dopaminergic neurons, MAP2- and TH-positive neurons were counted in 10 to 15 randomly chosen observation fields in a blinded manner using a Nikon TE2000-U inverted fluorescence microscope (Nikon Instruments, Melville NY) with a 20× objective. In the control conditions, and in conditions where the compound was neuroprotective, typically 500 to 1,300 MAP2-positive neurons were counted, a range that corresponds to 20 to 50 TH-positive neurons. The data were expressed as the ratio of the TH-positive neurons to the MAP2-positive neurons. […]
smiles,measurement,setting,value
"CNC(=O)c1cc(O)ccc1N [Compound 576755, 2-amino-5-hydroxy-N-methylbenzamide]",binding to control proteins (pb-index versus % Rmax of αSyn binding),[1],some non-specific binding to the control proteins
same,toxic effect on primary dopaminergic neurons,[2],no detectable toxic effect; also recorded: not toxic
